Results from patent publication US9040547B2, “Pyrrolopyrimidine and purine derivatives” (PFIZER INC., priority 2011, dated 2015).

Assays:
Assay type in all cases: cell-based
EGFR L858R = EGFR L858R (Homo sapiens, UniProt P00533, L858R); assay: pEGFR Y1068 ELISA assay, NIH3T3/EGFR_L858R cells; conditions: 3T3 cell line, 2 hrs compound treatment; read-out: pEGFRY1068 ELISA3T3 L858R IC50;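 further: sandwich ELISA of phospho-EGFR Tyr1068 in lysates of stably transfected NIH/3T3 pools after 2 h compound exposure at 37 °C, 11-point threefold dilution series run in duplicate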
EGFR L858R+T790M = EGFR L858R+T790M (Homo sapiens, UniProt P00533, L858R/T790M); assay: pEGFR Y1068 ELISA assay, NIH3T3/EGFR_L858R+T790M cells; conditions: 3T3 cell line, 2 hrs compound treatment; read-out: pEGFRY1068 ELISA3T3T790M—L858R IC50;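 further: sandwich ELISA of EGFR phosphorylated at Tyr1068 in lysates of stably transfected NIH/3T3 cells, 11-point threefold dilution series run in duplicate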
[1] = target: T1, EGFR wildtype, endogenous (Homo sapiens, UniProt P00533); assay: pEGFR Y1068 ELISA assay, A549 cells; conditions: full serum media, stimulated 10 min with EGF (40 ng/mL), read-out: pEGFRY1068 ELISAA549 IC50;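 further: sandwich ELISA of phospho-EGFR Tyr1068 in cell lysates, cells exposed to compound for 2 h before EGF stimulation, 11-point threefold dilution series run in duplicate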
T1 construct: A549 (EGFR wildtype, endogenous); host or cells: A549

EGFR E746-A750 deletion = EGFR E746-A750 deletion (Homo sapiens, UniProt P00533, DEL746-750); assay: pEGFR Y1068 ELISA assay, NIH3T3/EGFR_E746-A750 deletion cells; conditions: 3T3 Del cells, 2 hrs compound treatment; read-out: ELISA7E 3T3 Del IC50;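 further: sandwich ELISA on cell lysates detecting phospho-EGFR at Tyr1068, compounds run as 11-point threefold dilution series in duplicate, IC50 from inhibition of this phosphorylation signal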
Sequence of EGFR E746-A750 deletion (P00533 with tags, fused parts or gaps DEL746-750): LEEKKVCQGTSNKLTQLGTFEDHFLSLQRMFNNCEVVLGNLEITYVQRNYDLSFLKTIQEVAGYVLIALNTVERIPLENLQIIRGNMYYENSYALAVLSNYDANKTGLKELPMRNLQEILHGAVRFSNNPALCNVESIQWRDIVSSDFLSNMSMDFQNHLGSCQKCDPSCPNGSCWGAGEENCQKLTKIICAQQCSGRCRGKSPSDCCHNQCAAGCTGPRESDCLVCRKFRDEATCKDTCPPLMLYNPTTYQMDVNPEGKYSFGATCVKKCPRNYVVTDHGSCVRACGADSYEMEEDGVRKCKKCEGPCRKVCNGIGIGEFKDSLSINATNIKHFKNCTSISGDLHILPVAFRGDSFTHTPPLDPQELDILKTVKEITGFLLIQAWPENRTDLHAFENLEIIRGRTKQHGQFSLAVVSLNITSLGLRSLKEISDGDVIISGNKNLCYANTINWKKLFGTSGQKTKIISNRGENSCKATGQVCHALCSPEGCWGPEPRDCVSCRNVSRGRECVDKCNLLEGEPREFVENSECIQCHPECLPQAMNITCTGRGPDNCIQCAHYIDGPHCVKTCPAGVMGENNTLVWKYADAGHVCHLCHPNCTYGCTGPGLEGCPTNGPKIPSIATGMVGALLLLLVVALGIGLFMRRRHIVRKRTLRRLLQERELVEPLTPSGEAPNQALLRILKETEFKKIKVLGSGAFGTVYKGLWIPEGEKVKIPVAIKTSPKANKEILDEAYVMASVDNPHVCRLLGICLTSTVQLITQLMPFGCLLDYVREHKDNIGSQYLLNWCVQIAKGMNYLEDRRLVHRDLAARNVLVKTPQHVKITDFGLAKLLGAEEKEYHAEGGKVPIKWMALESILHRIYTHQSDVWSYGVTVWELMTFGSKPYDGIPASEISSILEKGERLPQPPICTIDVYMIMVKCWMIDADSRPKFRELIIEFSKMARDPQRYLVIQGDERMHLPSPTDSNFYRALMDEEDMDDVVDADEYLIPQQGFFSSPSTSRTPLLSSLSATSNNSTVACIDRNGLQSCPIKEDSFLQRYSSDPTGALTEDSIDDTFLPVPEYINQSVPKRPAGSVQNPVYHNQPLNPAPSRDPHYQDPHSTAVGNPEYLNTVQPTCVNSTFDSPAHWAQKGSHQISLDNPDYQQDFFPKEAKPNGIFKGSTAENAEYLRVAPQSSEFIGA

T1 sequence (P00533 25-1210): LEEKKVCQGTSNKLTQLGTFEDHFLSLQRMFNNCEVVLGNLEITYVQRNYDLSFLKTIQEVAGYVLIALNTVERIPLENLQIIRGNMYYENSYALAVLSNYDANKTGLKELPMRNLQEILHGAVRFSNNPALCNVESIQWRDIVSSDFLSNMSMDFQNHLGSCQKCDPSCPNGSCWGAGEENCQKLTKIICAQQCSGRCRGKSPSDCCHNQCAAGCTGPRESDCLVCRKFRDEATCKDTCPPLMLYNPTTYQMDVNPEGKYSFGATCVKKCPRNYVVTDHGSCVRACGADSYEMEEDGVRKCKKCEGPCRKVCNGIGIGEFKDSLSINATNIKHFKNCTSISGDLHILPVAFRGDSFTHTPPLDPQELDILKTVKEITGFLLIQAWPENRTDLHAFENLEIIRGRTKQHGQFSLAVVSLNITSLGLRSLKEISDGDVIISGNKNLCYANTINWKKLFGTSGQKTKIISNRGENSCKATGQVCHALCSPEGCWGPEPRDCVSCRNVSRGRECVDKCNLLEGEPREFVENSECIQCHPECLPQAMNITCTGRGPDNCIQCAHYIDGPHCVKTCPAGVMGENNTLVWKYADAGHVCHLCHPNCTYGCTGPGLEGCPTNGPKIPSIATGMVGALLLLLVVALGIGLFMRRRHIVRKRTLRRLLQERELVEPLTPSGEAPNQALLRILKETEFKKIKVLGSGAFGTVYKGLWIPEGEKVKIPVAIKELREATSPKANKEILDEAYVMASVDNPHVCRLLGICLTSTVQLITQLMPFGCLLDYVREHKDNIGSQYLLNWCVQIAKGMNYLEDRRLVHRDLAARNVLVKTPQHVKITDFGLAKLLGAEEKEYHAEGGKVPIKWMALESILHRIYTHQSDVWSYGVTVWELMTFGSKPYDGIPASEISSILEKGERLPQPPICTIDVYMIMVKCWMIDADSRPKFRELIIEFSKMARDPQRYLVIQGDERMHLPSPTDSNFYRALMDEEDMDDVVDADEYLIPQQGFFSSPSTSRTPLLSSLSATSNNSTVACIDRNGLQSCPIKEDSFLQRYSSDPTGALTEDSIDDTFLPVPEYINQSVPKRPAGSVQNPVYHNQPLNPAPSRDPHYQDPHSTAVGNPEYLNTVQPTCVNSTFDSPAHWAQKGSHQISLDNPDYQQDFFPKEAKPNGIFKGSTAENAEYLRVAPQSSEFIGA
Sequence of EGFR L858R+T790M (P00533 25-1210 T790M/L858R): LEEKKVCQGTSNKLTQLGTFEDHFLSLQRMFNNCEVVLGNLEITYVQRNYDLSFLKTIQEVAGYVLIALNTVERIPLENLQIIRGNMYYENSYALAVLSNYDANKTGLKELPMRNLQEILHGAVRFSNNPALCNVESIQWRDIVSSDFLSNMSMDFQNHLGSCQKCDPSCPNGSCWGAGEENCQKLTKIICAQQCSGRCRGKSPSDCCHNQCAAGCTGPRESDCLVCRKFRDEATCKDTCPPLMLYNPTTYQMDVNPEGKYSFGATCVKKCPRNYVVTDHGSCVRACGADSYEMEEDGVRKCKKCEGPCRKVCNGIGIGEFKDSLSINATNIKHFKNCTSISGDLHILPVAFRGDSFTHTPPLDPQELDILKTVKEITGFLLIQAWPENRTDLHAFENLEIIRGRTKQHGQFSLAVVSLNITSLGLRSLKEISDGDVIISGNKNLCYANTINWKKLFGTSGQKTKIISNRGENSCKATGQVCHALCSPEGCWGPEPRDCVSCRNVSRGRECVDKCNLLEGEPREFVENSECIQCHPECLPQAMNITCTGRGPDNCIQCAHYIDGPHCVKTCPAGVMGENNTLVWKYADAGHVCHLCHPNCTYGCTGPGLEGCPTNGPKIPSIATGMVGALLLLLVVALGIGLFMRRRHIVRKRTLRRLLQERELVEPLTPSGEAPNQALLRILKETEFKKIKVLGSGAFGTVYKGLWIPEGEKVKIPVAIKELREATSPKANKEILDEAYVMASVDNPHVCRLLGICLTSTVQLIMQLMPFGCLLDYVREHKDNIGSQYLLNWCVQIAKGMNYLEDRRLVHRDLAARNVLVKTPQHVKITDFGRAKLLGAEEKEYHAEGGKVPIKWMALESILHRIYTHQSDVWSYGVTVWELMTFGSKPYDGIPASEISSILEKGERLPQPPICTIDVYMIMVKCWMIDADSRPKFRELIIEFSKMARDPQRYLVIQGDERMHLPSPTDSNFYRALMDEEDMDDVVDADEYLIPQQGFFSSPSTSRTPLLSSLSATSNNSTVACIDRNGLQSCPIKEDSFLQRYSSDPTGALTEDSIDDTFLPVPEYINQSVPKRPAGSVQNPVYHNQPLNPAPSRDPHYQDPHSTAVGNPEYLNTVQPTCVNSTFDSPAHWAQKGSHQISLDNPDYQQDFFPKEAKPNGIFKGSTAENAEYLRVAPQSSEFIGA
Sequence of EGFR L858R (P00533 25-1210 L858R): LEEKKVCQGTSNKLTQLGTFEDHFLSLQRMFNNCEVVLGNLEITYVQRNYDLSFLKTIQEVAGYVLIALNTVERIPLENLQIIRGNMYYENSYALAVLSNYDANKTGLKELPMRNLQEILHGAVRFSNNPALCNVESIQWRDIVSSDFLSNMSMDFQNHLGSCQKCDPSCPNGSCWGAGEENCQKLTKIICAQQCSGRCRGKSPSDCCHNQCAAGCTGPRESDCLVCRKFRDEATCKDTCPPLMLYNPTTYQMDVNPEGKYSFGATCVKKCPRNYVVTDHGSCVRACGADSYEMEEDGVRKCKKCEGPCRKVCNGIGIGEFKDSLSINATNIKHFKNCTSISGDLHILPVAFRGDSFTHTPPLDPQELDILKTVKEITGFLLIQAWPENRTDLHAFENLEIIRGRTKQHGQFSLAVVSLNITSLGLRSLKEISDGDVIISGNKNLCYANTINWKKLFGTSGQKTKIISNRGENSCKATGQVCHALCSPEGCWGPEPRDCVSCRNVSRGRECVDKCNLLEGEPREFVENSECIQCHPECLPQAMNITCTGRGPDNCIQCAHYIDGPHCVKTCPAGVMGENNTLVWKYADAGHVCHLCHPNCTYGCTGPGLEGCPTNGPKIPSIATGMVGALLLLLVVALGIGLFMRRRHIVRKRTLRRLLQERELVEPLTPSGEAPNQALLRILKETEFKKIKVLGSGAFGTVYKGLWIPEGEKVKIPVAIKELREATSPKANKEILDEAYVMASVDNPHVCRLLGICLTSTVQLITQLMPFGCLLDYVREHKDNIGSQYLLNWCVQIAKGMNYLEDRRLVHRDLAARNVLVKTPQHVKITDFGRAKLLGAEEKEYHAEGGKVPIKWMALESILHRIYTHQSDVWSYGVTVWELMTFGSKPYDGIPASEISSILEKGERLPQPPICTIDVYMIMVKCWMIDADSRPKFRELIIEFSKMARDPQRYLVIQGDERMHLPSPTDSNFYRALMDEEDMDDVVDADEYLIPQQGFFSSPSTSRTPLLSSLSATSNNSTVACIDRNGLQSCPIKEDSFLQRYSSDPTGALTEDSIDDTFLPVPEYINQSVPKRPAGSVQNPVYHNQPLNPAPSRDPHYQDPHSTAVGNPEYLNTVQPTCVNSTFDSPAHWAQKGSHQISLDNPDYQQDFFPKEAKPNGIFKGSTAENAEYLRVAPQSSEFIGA

## C=CC(=O)N1C[C@@H](COc2nc(Nc3cnn(C)c3)nc3[nH]ccc23)[C@H](C)C1 (single isomer, unassigned) [Example 3]
EGFR L858R
  IC50: 733 nM
EGFR L858R+T790M
  IC50: 57 nM
[1]
  IC50: 9060 nM

## C=CC(=O)N1C[C@H](COc2nc(Nc3cnn(C)c3)nc3[nH]ccc23)[C@@H](C)C1 (single isomer, unassigned) [Example 4]
EGFR L858R
  IC50: 547 nM
EGFR L858R+T790M
  IC50: 77 nM
[1]
  IC50: > 10000 nM

## C=CC(=O)N1C[C@@H](CC)[C@H](COc2nc(Nc3cnn(C)c3)nc3[nH]ccc23)C1 (single isomer, unassigned) [Example 15]
EGFR L858R
  IC50: 834 nM
EGFR L858R+T790M
  IC50: 182 nM
[1]
  IC50: > 10000 nM

## C=CC(=O)N[C@H]1C[C@@H](Oc2nc(Nc3cnn(C)c3)nc3[nH]cnc23)C1 (single isomer, unassigned) [Example 55]
EGFR E746-A750 deletion
  IC50: > 10000 nM

## C=CC(=O)N[C@H]1C[C@H](Oc2nc(Nc3cnn(C)c3)nc3[nH]cnc23)C1 (single isomer, unassigned) [Example 56]
EGFR E746-A750 deletion
  IC50: > 10000 nM

## C=CC(=O)Nc1cccc(Oc2nc(Nc3ccn(C)n3)nc3[nH]cc(F)c23)c1 [Example 1, N-[3-({5-fluoro-2-[(1-methyl-1H-pyrazol-3-yl)amino]-7H-pyrrolo[2,3-d]pyrimidin-4-yl}oxy)phenyl]prop-2-enamide]
EGFR L858R
  IC50: 585 nM
EGFR L858R+T790M
  IC50: 33 nM
[1]
  IC50: > 10000 nM

## C=CC(=O)N[C@H]1C[C@H](Nc2nc(Nc3cnn(C)c3)nc3[nH]ccc23)C1 [Example 6, N-[trans-3-({2-[(1-methyl-1H-pyrazol-4-yl)amino]-7H-pyrrolo[2,3-d]pyrimidin-4-yl}amino)cyclobutyl]prop-2-enamide]
EGFR L858R
  IC50: > 10000 nM
EGFR L858R+T790M
  IC50: > 10000 nM
[1]
  IC50: > 10000 nM

## C=CC(=O)Nc1cccc(Oc2nc(Nc3cnn(C4CCN(C)C4)c3)nc3[nH]cnc23)c1 (stereo not shown) [Example 7, N-{3-[(2-{[1-(1-methylpyrrolidin-3-yl)-1H-pyrazol-4-yl]amino}-9H-purin-6-yl)oxy]phenyl}prop-2-enamide]
EGFR E746-A750 deletion
  IC50: 1130 nM
EGFR L858R
  IC50: 1120 nM
EGFR L858R+T790M
  IC50: 396 nM
[1]
  IC50: > 10000 nM

## C=CC(=O)N[C@H]1C[C@H](Oc2nc(Nc3cnn(C)c3)nc3[nH]cc(C#N)c23)C1 [Example 14]
EGFR L858R
  IC50: > 10000 nM
EGFR L858R+T790M
  IC50: 1800 nM
[1]
  IC50: > 10000 nM

## C=CC(=O)N1CC(COc2nc(Nc3cnn(C)c3)nc3[nH]ccc23)C1 [Example 16]
EGFR L858R
  IC50: 2510 nM
EGFR L858R+T790M
  IC50: 308 nM
[1]
  IC50: > 10000 nM

## C=CC(=O)N1CCO[C@@H](COc2nc(Nc3cnn(C)c3)nc3[nH]ccc23)C1 [Example 17]
EGFR L858R
  IC50: 2030 nM
EGFR L858R+T790M
  IC50: 104 nM
[1]
  IC50: > 10000 nM

## C=CC(=O)N1CCO[C@H](COc2nc(Nc3cnn(C)c3)nc3[nH]ccc23)C1 [Example 18]
EGFR L858R
  IC50: 1500 nM
EGFR L858R+T790M
  IC50: 79 nM
[1]
  IC50: > 10000 nM

## C=CC(=O)N1CC[C@@H](Oc2nc(Nc3cnn(C)c3)nc3[nH]cc(C#N)c23)C1 [Example 20]
EGFR E746-A750 deletion
  IC50: 8400 nM
EGFR L858R
  IC50: > 10000 nM
EGFR L858R+T790M
  IC50: 1820 nM
[1]
  IC50: > 10000 nM

## C=CC(=O)Nc1cccc(Oc2nc(Nc3cnn(C)c3C)nc3[nH]ccc23)c1 [Example 24]
EGFR L858R
  IC50: 275 nM
EGFR L858R+T790M
  IC50: 20 nM
[1]
  IC50: 6740 nM

## C=CC(=O)Nc1cccc(Oc2nc(Nc3cnn(CC(C)(C)O)c3)nc3[nH]ccc23)c1 [Example 25]
EGFR L858R
  IC50: 1030 nM
EGFR L858R+T790M
  IC50: 69 nM
[1]
  IC50: > 10000 nM

## C=CC(=O)Nc1cccc(Oc2nc(Nc3cc(C)nn3C)nc3[nH]ccc23)c1 [Example 26]
EGFR E746-A750 deletion
  IC50: 135 nM
EGFR L858R
  IC50: 177 nM
EGFR L858R+T790M
  IC50: 21 nM
[1]
  IC50: 6760 nM

## C=CC(=O)N1CCc2c(Oc3nc(Nc4ccn(C)n4)nc4[nH]ccc34)cccc21 [Example 29]
EGFR E746-A750 deletion
  IC50: 116 nM

## C=CC(=O)Nc1cccc(Oc2nc(Nc3cn(C)nc3C)nc3[nH]ccc23)c1 [Example 30]
EGFR E746-A750 deletion
  IC50: 25 nM
EGFR L858R
  IC50: 91 nM
EGFR L858R+T790M
  IC50: 9 nM
[1]
  IC50: 2390 nM

## C=CC(=O)Nc1cccc(Oc2nc(Nc3cnn(C4CCN(C)CC4)c3)nc3[nH]ccc23)c1 [Example 33]
EGFR E746-A750 deletion
  IC50: 27 nM
EGFR L858R
  IC50: 120 nM
EGFR L858R+T790M
  IC50: 20 nM
[1]
  IC50: 2210 nM

## C=CC(=O)N1CCc2c(Oc3nc(Nc4cnn(C)c4)nc4[nH]cc(C#N)c34)cccc21 [Example 37]
EGFR L858R
  IC50: 67 nM
EGFR L858R+T790M
  IC50: 41 nM
[1]
  IC50: > 10000 nM

## C=CC(=O)N1CCc2c(Oc3nc(Nc4cnn(C)c4)nc4[nH]ccc34)cccc21 [Example 38]
EGFR L858R
  IC50: 90 nM
EGFR L858R+T790M
  IC50: 8 nM
[1]
  IC50: 5900 nM

## C=CC(=O)Nc1cccc(Oc2nc(Nc3cnn(C4CCOC4)c3)nc3[nH]ccc23)c1 (stereo not shown) [Example 39]
EGFR E746-A750 deletion
  IC50: 100 nM
EGFR L858R
  IC50: 190 nM
EGFR L858R+T790M
  IC50: 15 nM
[1]
  IC50: 2800 nM

## C=CC(=O)Nc1cccc(COc2nc(Nc3cnn(C)c3)nc3[nH]ccc23)c1 [Example 43]
EGFR L858R
  IC50: > 10000 nM
EGFR L858R+T790M
  IC50: 5340 nM
[1]
  IC50: > 10000 nM

## C=CS(=O)(=O)N1CCc2c(Oc3nc(Nc4cnn(C)c4)nc4[nH]ccc34)cccc21 [Example 44]
EGFR E746-A750 deletion
  IC50: 90 nM
EGFR L858R
  IC50: 552 nM
EGFR L858R+T790M
  IC50: 25 nM
[1]
  IC50: 3560 nM

## C=CC(=O)Nc1cccc(Oc2nc(Nc3cc(COC)nn3C)nc3[nH]ccc23)c1 [Example 45]
EGFR L858R
  IC50: 700 nM
EGFR L858R+T790M
  IC50: 84 nM
[1]
  IC50: > 10000 nM

## C=CC(=O)Nc1cccc(Oc2nc(Nc3cc(C4CC4)nn3C)nc3[nH]ccc23)c1 [Example 46]
EGFR L858R
  IC50: 495 nM
EGFR L858R+T790M
  IC50: 80 nM
[1]
  IC50: > 10000 nM

## C=CC(=O)Nc1cccc(Oc2nc(Nc3cc(CC)nn3C)nc3[nH]ccc23)c1 [Example 47]
EGFR E746-A750 deletion
  IC50: 317 nM
EGFR L858R
  IC50: 752 nM
EGFR L858R+T790M
  IC50: 50 nM
[1]
  IC50: > 10000 nM

## C=CC(=O)Nc1cc(F)cc(Oc2nc(Nc3ccn(C)n3)nc3[nH]ccc23)c1 [Example 49]
EGFR E746-A750 deletion
  IC50: 22 nM
EGFR L858R
  IC50: 97 nM
EGFR L858R+T790M
  IC50: 7 nM
[1]
  IC50: 2020 nM

## C=CC(=O)Nc1cccc(Oc2nc(Nc3ccn(CCN(C)C)n3)nc3[nH]ccc23)c1 [Example 51]
EGFR E746-A750 deletion
  IC50: 137 nM
EGFR L858R
  IC50: 431 nM
EGFR L858R+T790M
  IC50: 35 nM
[1]
  IC50: > 10000 nM

## C=CC(=O)Nc1cccc(Oc2nc(Nc3cnn(CCN(C)C)c3)nc3[nH]cnc23)c1 [Example 53]
EGFR E746-A750 deletion
  IC50: 663 nM
EGFR L858R
  IC50: 1140 nM
EGFR L858R+T790M
  IC50: 355 nM
[1]
  IC50: > 10000 nM

## C=CC(=O)Nc1cccc(Oc2nc(Nc3cnn(C)c3)nc3[nH]cnc23)c1 [Example 54]
EGFR E746-A750 deletion
  IC50: 192 nM
EGFR L858R
  IC50: 672 nM
EGFR L858R+T790M
  IC50: 168 nM
[1]
  IC50: > 10000 nM

## C=CC(=O)Nc1cccc(Oc2nc(Nc3cnn(CC(=O)N(C)C)c3)nc3[nH]ccc23)c1 [Example 58]
EGFR L858R
  IC50: > 10000 nM
EGFR L858R+T790M
  IC50: 681 nM
[1]
  IC50: > 10000 nM

## C=CC(=O)Nc1cccc(Oc2nc(Nc3ccn(C)n3)nc3[nH]ccc23)c1F [Example 59]
EGFR E746-A750 deletion
  IC50: 36 nM
EGFR L858R
  IC50: 78 nM
EGFR L858R+T790M
  IC50: 7 nM
[1]
  IC50: > 7890 nM

## C=CC(=O)Nc1cccc(Oc2nc(Nc3cnn(C)c3)nc3[nH]cc(-c4cnn(C)c4)c23)c1 [Example 60]
EGFR E746-A750 deletion
  IC50: 12 nM
EGFR L858R
  IC50: 23 nM
EGFR L858R+T790M
  IC50: 16 nM
[1]
  IC50: 1860 nM

## C=CC(=O)N(C)C1CC(Oc2nc(Nc3cnn(C)c3)nc3[nH]cc(C#N)c23)C1 (stereo not shown) [Example 61]
EGFR E746-A750 deletion
  IC50: 581 nM
EGFR L858R
  IC50: 1700 nM
EGFR L858R+T790M
  IC50: 189 nM
[1]
  IC50: > 10000 nM

## C=CC(=O)N1C[C@@H]2[C@H](C1)[C@H]2Oc1nc(Nc2cnn(C)c2)nc2[nH]cc(Cl)c12 [Example 66]
EGFR E746-A750 deletion
  IC50: 309 nM
EGFR L858R
  IC50: 120 nM
EGFR L858R+T790M
  IC50: 9 nM
[1]
  IC50: > 10000 nM
